This is an account of results in patent publication US8143025B2, “Antibodies against vascular endothelial growth factor receptor-1” (ImClone LLC, priority 2004, dated 2012).

The test system of experiment [1] is DU4475 carcinoma cells. The experiment in a line: Cell growth assay (Example 5). Format: cell-based, human. The following applies: 3, 10, 30 μg/ml antibody, 50 ng/ml VEGF or 200 ng/ml PlGF, 48 hours. How it is done: DU4475 carcinoma cells were seeded at a density of 5×10^3/well into 96-well plates in serum-free conditions for 18 hours, and in some case followed by treatment with 100 nM of desferoxamine for additional 5 hours. Inhibitory effect of anti-VEGFR-I antibody on tumor cell growth was determined by incubation of cells with anti-VEGFR-I antibody clones 6F9, 13G12, 15F1 1, and 18F1 at doses of 3, 10, and 30 μg/ml in the presence of 50 ng/ml of VEGF or 200 ng/ml of PlGF for 48 hours. Viable cells were then counted in triplicate using a Coulter cytometer (Coulter Electronics Ltd. Luton, Beds, England). Each experiment was done in triplicate.

The test system of experiment [2] is DLD-I xenograft. As to the kind of experiment: DLD-I colon cancer xenograft. The experiment is classed as in vivo, mouse. The following applies: monotherapy, FIG. 26B. On the procedure: (§1) Female athymic nu/nu mice, 6-8 weeks of age, were injected subcutaneously on the lateral dorsal surface with 0.4 mL volume of a suspension containing a human tumor cell line in media, diluted 1:1 with MATRIGEL™ (BD Biosciences). The cell lines used in xenograft models, with the cell doses indicated in parenthesis (10^6 cells/mouse), were: human colon carcinoma cell lines DLD-I (5), GEO (5) and HT-29 (5); human breast carcinoma cell lines DU4475 (2), MDA-MB-231 (5), MDA-MB-435 (5), and BT474 (5). When tumors reached approximately 200-300 mm^3, mice were randomized by tumor size and divided into treatment groups. Tumor growth was evaluated approximately twice weekly, with tumor volume calculated as π/6* (Length*Width^2), where Length=longest diameter and Width=diameter perpendicular to Length. Tumor dimensions were measured with calipers. T/C % was calculated as 100*(Final Treatment Tumor Volume/Initial Treatment Tumor Volume)/(Final Control Tumor Volume/Initial Control Tumor Volume).
(§2) 18F1 was diluted in 0.9% USP saline (Braun) or phosphate buffered saline (PBS) and administered intraperitoneally in a volume of 0.5 mL per mouse. The effect of treatment on tumor growth was analyzed using repeated measures analysis of variance (RM ANOVA), p<0.05 was considered significant.

Experiment [3] deals with VEGFR-I (Homo sapiens, UniProt P17948). As to the kind of experiment: VEGFR-I phosphorylation assay, BT474 cells. The experiment is classed as cell-based. On the set-up: endogenous in cells; host or cells: BT474 human breast carcinoma cells. The following applies: BT474 breast cancer cells, compared to untreated control, FIG. 11. On the procedure:
Confluent porcine aorta endothelial VEGFR-I expressing (PAE-VEGFR-I) cells and BT474 human breast carcinoma cells were cultured in serum-depleted F12 medium for 48 hours. The cells were then preincubated with anti-VEGFR-I antibody clone 18F1 at concentrations ranging from 0.1 to 30 μg/ml for 1 hour followed by stimulating with VEGF or PlGF for 5 minutes at 37° C. The cells were then rinsed with ice-cold PBS and lysed in lysis buffer (50 mM HEPES, 150 mM NaCl, 1% Triton X-100, and 10% glycerol containing 1 mM phenylmethylsulfonyl fluoride, 10 μg/ml aprotinin, 10 μg/ml leupeptin, and 1 mM sodium vanadate). Cell lysates were subjected to SDS-PAGE and transferred onto Immobilon membranes (Millipore Corp. Billerica, Mass.). […]
Autophosphorylation of the VEGFR-I induced by its ligands and resulting activation of a classical MAPK, extracellular signal-regulated protein kinases 1Z2 (ERK1Z2) and the PBK/Atk downstrean signaling pathways mediate cellular biological responses such as proliferation, motility, survival, and differentiation. The ability of an anti-VEGFR-1 antibody to inhibit phosphorylation of VEGFR-I and activation of ERK1 Z2 and the Akt kinases downstream signaling were determined by using the PAE-VEGFR-I transfectant and BT474 breast carcinoma cells. […]

Experiment [4] has as its system MDA-MB-231 xenografts. The experiment in a line: Immunohistochemistry and TUNEL of MDA-MB-231 xenografts. Format: in vivo, mouse. How it is done:
Paraffin-embedded MDA-MB-231 xenografts were evaluated immunohistochemically for markers of tumor cell proliferation, survival, and apoptosis. Markers of proliferation and survival included Ki-67 (rabbit pAb; Lab Vision Corporation, Fremont, Calif.), phospho-specific p44/42 MAPK (Thr202/Tyr204) (rabbit pAb; Cell Signaling Technology) and phospho-specific Akt (Ser473) (rabbit pAb; Cell Signaling Technology). The EnVision+ System for rabbit antibodies (DAKO Cytomation, Carpenteria, Calif.) was used with 3,3′ diaminobenzidine (DAB) as the chromagen, per kit instructions. After brief counterstaining in Mayer's hematoxylin all sections were dehydrated, cleared and coverslipped using a permanent mounting medium. Tumor apoptosis was assessed by TUNEL assay using ApopTag® Peroxidase In Situ Apoptosis Detection Kit (Chemicon, Temecula, Calif.) per kit instructions. Stained sections were coverslipped with Gelmount (Biomeda, Foster City, Calif.). Positive immunostaining and TUNEL positive […] were analyzed and imaged using an Axioskop light microscope with an Axiocam digital camera (Carl Zeiss, Germany).

In experiment [5] the test system is GEO xenograft. The experiment in a line: GEO colon cancer xenograft. The following applies: monotherapy, FIG. 26C. Format: in vivo, mouse. How it is done: as §1, §2
The mark [6] stands for this setting: after 1 week, 0.5 mg/dose M-W-F.
[7] abbreviates: after 14 days, 20 mg/kg 2x/week.

Entries after “also recorded” stand apart in the source; their conditions may differ.

VEGFR-I, sequence (P17948 27-1338): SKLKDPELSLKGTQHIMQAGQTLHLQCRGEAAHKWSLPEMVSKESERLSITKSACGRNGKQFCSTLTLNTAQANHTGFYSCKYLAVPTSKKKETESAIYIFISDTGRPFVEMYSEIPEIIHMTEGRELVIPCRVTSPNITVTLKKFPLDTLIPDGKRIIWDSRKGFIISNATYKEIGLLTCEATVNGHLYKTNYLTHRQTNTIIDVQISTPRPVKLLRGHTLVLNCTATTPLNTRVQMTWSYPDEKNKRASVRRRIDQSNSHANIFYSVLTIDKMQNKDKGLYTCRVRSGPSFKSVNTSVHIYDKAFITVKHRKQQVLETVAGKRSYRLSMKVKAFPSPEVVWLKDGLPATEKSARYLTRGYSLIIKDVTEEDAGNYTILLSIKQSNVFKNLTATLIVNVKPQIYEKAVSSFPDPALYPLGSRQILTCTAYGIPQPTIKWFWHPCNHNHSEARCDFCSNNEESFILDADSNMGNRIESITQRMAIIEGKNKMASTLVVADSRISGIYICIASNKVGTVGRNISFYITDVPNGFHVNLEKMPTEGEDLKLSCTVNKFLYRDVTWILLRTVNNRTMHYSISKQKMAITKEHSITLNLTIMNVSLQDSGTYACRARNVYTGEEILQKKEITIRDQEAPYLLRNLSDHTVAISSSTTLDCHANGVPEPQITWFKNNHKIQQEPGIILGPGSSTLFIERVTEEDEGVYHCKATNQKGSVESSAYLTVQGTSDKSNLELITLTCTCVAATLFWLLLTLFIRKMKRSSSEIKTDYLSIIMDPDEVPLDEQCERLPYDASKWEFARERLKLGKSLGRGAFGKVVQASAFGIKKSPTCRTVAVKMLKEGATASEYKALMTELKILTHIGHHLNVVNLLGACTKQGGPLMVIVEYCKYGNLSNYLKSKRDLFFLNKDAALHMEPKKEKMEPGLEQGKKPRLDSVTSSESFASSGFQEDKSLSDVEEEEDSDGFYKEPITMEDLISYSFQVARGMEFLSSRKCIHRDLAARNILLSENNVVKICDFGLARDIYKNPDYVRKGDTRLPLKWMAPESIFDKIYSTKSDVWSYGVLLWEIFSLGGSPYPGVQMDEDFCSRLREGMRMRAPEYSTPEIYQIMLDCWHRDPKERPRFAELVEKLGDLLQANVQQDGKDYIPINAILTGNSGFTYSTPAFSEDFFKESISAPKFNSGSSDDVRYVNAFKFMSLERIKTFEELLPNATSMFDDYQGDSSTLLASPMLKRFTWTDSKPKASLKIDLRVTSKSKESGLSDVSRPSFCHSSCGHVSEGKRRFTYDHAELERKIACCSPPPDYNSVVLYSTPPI

As for “18F1: human anti-VEGFR-1 monoclonal antibody clone; VL SEQ ID NO: 16, VH SEQ ID NO: 20 [Clone 18F1]”, in experiment [1], the “VEGF and PlGF stimulated proliferation of DU4475 breast carcinoma cells” value was “inhibition”. The “antitumor effect against DLD-I colon cancer xenografts” value in experiment [2] is listed as “significant antitumor effect”. Also, the “PlGF or VEGF-stimulated phosphorylation of VEGFR-I” value in experiment [3] is reported as “significantly reduced; also recorded: inhibition”. In experiment [4] (setting [6]), the Akt phosphorylation entry is given as “significant decrease” and the “apoptosis as measured by TUNEL positive events” value was “increase”. Besides, in experiment [4] (setting [7]), the “activation of MAPK” value is “marked decrease” and the “marker for proliferating cells (Ki-67)” value was “significantly reduced”. Moreover, the “antitumor effect against GEO colon cancer xenografts” value in experiment [5] was “significant antitumor effect”.
